Source: patent US20090163516A1, “CARBOXAMIDES FOR CONTROLLING UNDESIRED MICRO-ORGANISMS IN PLANT PROTECTION” (Bayer Cropscience AG, priority 2005, published 2009)

Columns and labels:
Alternaria solani = assay: Alternaria test (tomato)/protective; type: in vivo; settings: 168 h, young tomato plants sprayed, inoculated one day after treatment, evaluation 7 days after inoculation, read-out: Efficacy in %
Description: (§1) To produce a suitable preparation of active compound, 1 part by weight of active compound is mixed with the stated amounts of solvent and emulsifier, and the concentrate is diluted with water to the desired concentration.
To test for protective activity, young tomato plants are sprayed with the active compound preparation at the stated application rate. One day after the treatment, the plants are inoculated with a spore suspension of Alternaria solani and then remain at 100% relative humidity and 20° C. for 24 h. The plants then remain at 96% relative atmospheric humidity and a temperature of 20° C.
(§2) Evaluation is carried out 7 days after the inoculation. 0% means an efficacy which corresponds to that of the control, whereas an efficacy of 100% means that no infection is observed.

[1] = logP determination by HPLC on a reverse-phase column (EEC Directive 79/831 Annex V.A8); type: physicochemical; settings: reverse-phase C18 HPLC column; pH 2.3; HPLC reverse-phase C 18, 43° C., 0.1% aqueous phosphoric acid and acetonitrile
Description: The determination is carried out in the acidic range at pH 2.3 using the mobile phases 0.1% aqueous phosphoric acid and acetonitrile; linear gradient from 10% acetonitrile to 90% acetonitrile.

Sphaerotheca fuliginea = assay: Sphaerotheca test (cucumber)/protective; type: in vivo; settings: 500 ppm; young cucumber plants sprayed, inoculated one day after treatment; evaluation 7 days after inoculation
Description: as §1
To test for protective activity, young cucumber plants are sprayed with the active compound preparation at the stated application rate. One day after the treatment, the plants are inoculated with a spore suspension of Sphaerotheca fuliginea. The plants are then placed in a greenhouse at 70% relative atmospheric humidity and a temperature of 23° C.
as §2

Pyrenophora teres = Pyrenophora teres test (barley)/protective; type: in vivo; settings: 1000 ppm; young barley plants sprayed; evaluation 8 days after inoculation
Description: as §1
To test for protective activity, young plants are sprayed with the active compound preparation at the stated application rate. After the spray coating has dried on, the plants are sprayed with a conidia suspension of Pyrenophora teres. The plants remain in an incubation cabin at 20° C. and 100% relative atmospheric humidity for 48 hours. The plants are then placed in a greenhouse at a temperature of about 20° C. and a relative atmospheric humidity of about 80%.
Evaluation is carried out 8 days after the inoculation. 0% means an efficacy which corresponds to that of the control, whereas an efficacy of 100% means that no infection is observed.

Podosphaera leucotricha = assay: Podosphaera test (apple)/protective; type: in vivo; settings: 100 ppm; young apple plants sprayed; evaluation 10 days after inoculation
Description: (§3) To produce a suitable preparation of active compound, 1 part by weight of active compound is mixed with the stated amounts of solvents and emulsifier, and the concentrate is diluted with water to the desired concentration.
To test for protective activity, young plants are sprayed with the active compound preparation at the stated application rate. After the spray coating has dried on, the plants are inoculated with an aqueous spore suspension of the apple mildew pathogen Podosphaera leucotricha. The plants are then placed in a greenhouse at about 23° C. and a relative atmospheric humidity of about 70%.
(§4) Evaluation is carried out 10 days after the inoculation. 0% means an efficacy which corresponds to that of the control, whereas an efficacy of 100% means that no infection is observed.

Venturia inaequalis = assay: Venturia test (apple)/protective; type: in vivo; settings: 100 ppm; young apple plants sprayed; evaluation 10 days after inoculation
Description: as §3
To test for protective activity, young plants are sprayed with the active compound preparation at the stated application rate. After the spray coating has dried on, the plants are inoculated with an aqueous conidia suspension of the apple scab pathogen Venturia inaequalis and then remain in an incubation cabin at about 20° C. and 100% relative atmospheric humidity for 1 day. The plants are then placed in a greenhouse at about 21° C. and a relative atmospheric humidity of about 90%.
as §4

Botrytis cinerea = assay: Botrytis test (bean)/protective; type: in vivo; settings: 48 h, young bean plants sprayed, size of infected areas two days after inoculation, read-out: Efficacy in %
Description: as §3
To test for protective activity, young plants are sprayed with the active compound preparation at the stated application rate. After the spray coating has dried on, two small pieces of agar colonized by Botrytis cinerea are placed onto each leaf. The inoculated plants are placed in a dark chamber at about 20° C. and 100% relative atmospheric humidity.
Two days after the inoculation, the size of the infected areas on the leaves is evaluated. 0% means an efficacy which corresponds to that of the control, whereas an efficacy of 100% means that no infection is observed.

O=C(c1ccccc1Cl)N(C(=O)c1ccccc1Cl)c1ncncc1-c1ccc(OC(F)(F)F)cc1
pest or weed control at 500 ppm (Alternaria solani): 70%

Cc1ccsc1C(=O)Nc1ncncc1-c1ccc(OC(F)(F)F)cc1
pest or weed control at 500 ppm (Alternaria solani): 70%

O=C(Nc1ncncc1-c1ccc(Cl)cc1)c1ccccc1C(F)(F)F [Example 1, N-[5-(4-chlorophenyl)-4-pyrimidinyl]-2-(trifluoromethyl)benzamide]
chromatographic logP [1]: 2.57

Cc1nc(C(F)(F)F)c(C(=O)Nc2ncncc2-c2ccc(Cl)c(Cl)c2)s1 [Example 2, N-[5-(3,4-dichlorophenyl)-4-pyrimidinyl]-2-methyl-4-(trifluoromethyl)-1,3-thiazole-5-carboxamide]
chromatographic logP [1]: 2.85

O=C(Nc1ncncc1-c1ccc(Cl)c(Cl)c1)c1ccccc1C(F)(F)F [Example 6]
chromatographic logP [1]: 2.92

O=C(Nc1ncncc1-c1ccc(Br)cc1)c1ccccc1I [Example 7]
chromatographic logP [1]: 2.61

O=C(Nc1ncncc1-c1ccc(Cl)c(Cl)c1)c1ccccc1I [Example 8]
chromatographic logP [1]: 2.89

O=C(Nc1ncncc1-c1ccc(Br)cc1)c1ccccc1Cl [Example 9]
chromatographic logP [1]: 2.46

O=C(Nc1ncncc1-c1ccc(Cl)c(Cl)c1)c1ccccc1Cl [Example 10]
chromatographic logP [1]: 2.73

O=C(c1ccccc1Cl)N(C(=O)c1ccccc1Cl)c1ncncc1-c1ccc(C(F)(F)F)cc1 [Example 12]
chromatographic logP [1]: 4.12

O=C(Nc1ncncc1-c1ccc(C(F)(F)F)cc1)c1ccccc1Cl [Example 13]
chromatographic logP [1]: 2.62

O=C(c1ccccc1Cl)N(C(=O)c1ccccc1Cl)c1ncncc1-c1ccc(Br)cc1 [Example 14]
chromatographic logP [1]: 2.73

O=C(c1ccccc1Cl)N(C(=O)c1ccccc1Cl)c1ncncc1-c1ccc(Cl)c(Cl)c1 [Example 15]
chromatographic logP [1]: 2.46

Cn1cc(C(=O)Nc2ncncc2-c2ccc(Cl)c(Cl)c2)c(C(F)(F)F)n1 [Example 19]
chromatographic logP [1]: 2.46

Nc1ncncc1-c1ccc(Cl)c(Cl)c1 [III-1, 5-(3,4-dichlorophenyl)-4-pyrimidinylamine]
chromatographic logP [1]: 0.87

O=C(Nc1ncncc1-c1ccc(Cl)cc1)c1ccccc1C(F)(F)F [drawing 72]
Efficacy in % (Sphaerotheca fuliginea): 78%

O=C(Nc1ncncc1-c1ccc(Br)cc1)c1ccccc1I [drawing 73]
Efficacy in % (Sphaerotheca fuliginea): 95%

O=C(Nc1ncncc1-c1ccc(Cl)c(Cl)c1)c1ccccc1I [drawing 74]
Efficacy in % (Sphaerotheca fuliginea): 100%

O=C(Nc1ncncc1-c1ccc(Cl)c(Cl)c1)c1ccccc1Cl [drawing 75]
Efficacy in % (Sphaerotheca fuliginea): 90%

O=C(Nc1ncncc1-c1ccc(OC(F)(F)F)cc1)c1ccccc1I [drawing 76]
Efficacy in % (Sphaerotheca fuliginea): 95%

Cn1cc(C(=O)Nc2ncncc2-c2ccc(Cl)c(Cl)c2)c(C(F)(F)F)n1 [drawing 77]
Efficacy in % (Sphaerotheca fuliginea): 95%

O=C(Nc1ncncc1-c1ccc(Cl)cc1)c1ccccc1C(F)(F)F [drawing 78]
pest or weed control at 500 ppm (Alternaria solani): 100%

O=C(Nc1ncncc1-c1ccc(Br)cc1)c1ccccc1I [drawing 79]
pest or weed control at 500 ppm (Alternaria solani): 100%

O=C(Nc1ncncc1-c1ccc(Cl)c(Cl)c1)c1ccccc1I [drawing 80]
pest or weed control at 500 ppm (Alternaria solani): 100%

O=C(Nc1ncncc1-c1ccc(Br)cc1)c1ccccc1Cl [drawing 81]
pest or weed control at 500 ppm (Alternaria solani): 100%

O=C(Nc1ncncc1-c1ccc(Cl)c(Cl)c1)c1ccccc1Cl [drawing 82]
pest or weed control at 500 ppm (Alternaria solani): 100%

O=C(Nc1ncncc1-c1ccc(OC(F)(F)F)cc1)c1ccccc1I [drawing 83]
pest or weed control at 500 ppm (Alternaria solani): 100%

O=C(c1ccccc1Cl)N(C(=O)c1ccccc1Cl)c1ncncc1-c1ccc(C(F)(F)F)cc1 [drawing 84]
pest or weed control at 500 ppm (Alternaria solani): 100%

O=C(Nc1ncncc1-c1ccc(C(F)(F)F)cc1)c1ccccc1Cl [drawing 85]
pest or weed control at 500 ppm (Alternaria solani): 100%

O=C(c1ccccc1Cl)N(C(=O)c1ccccc1Cl)c1ncncc1-c1ccc(Br)cc1 [drawing 86]
pest or weed control at 500 ppm (Alternaria solani): 71%

O=C(c1ccccc1Cl)N(C(=O)c1ccccc1Cl)c1ncncc1-c1ccc(Cl)c(Cl)c1 [drawing 87]
pest or weed control at 500 ppm (Alternaria solani): 95%

O=C(Nc1ncncc1-c1ccc(OC(F)(F)F)cc1)c1ccccc1Cl [drawing 89]
pest or weed control at 500 ppm (Alternaria solani): 95%

Cn1cc(C(=O)Nc2ncncc2-c2ccc(Cl)c(Cl)c2)c(C(F)(F)F)n1 [drawing 90]
pest or weed control at 500 ppm (Alternaria solani): 95%

O=C(Nc1ncncc1-c1ccc(Br)cc1)c1ccccc1I [drawing 92]
Efficacy in % (Pyrenophora teres): 89%

O=C(Nc1ncncc1-c1ccc(Cl)c(Cl)c1)c1ccccc1I [drawing 93]
Efficacy in % (Pyrenophora teres): 100%

O=C(Nc1ncncc1-c1ccc(Br)cc1)c1ccccc1I [drawing 94]
Efficacy in % (Podosphaera leucotricha): 87%

O=C(Nc1ncncc1-c1ccc(Cl)c(Cl)c1)c1ccccc1I [drawing 95]
Efficacy in % (Podosphaera leucotricha): 93%

O=C(Nc1ncncc1-c1ccc(C(F)(F)F)cc1)c1ccccc1Cl [drawing 96]
Efficacy in % (Podosphaera leucotricha): 93%

Cc1nc(C(F)(F)F)c(C(=O)Nc2ncncc2-c2ccc(Cl)c(Cl)c2)s1 [drawing 97]
Efficacy in % (Venturia inaequalis): 95%

O=C(Nc1ncncc1-c1ccc(Cl)c(Cl)c1)c1ccccc1C(F)(F)F [drawing 98]
Efficacy in % (Venturia inaequalis): 95%

Cc1nc(C(F)(F)F)c(C(=O)Nc2ncncc2-c2ccc(Cl)c(Cl)c2)s1 [drawing 99]
pest or weed control at 500 ppm (Botrytis cinerea): 91%

O=C(Nc1ncncc1-c1ccc(Cl)c(Cl)c1)c1ccccc1C(F)(F)F [drawing 100]
pest or weed control at 500 ppm (Botrytis cinerea): 80%

O=C(Nc1ncncc1-c1ccc(Cl)c(Cl)c1)c1ccccc1I [drawing 101]
pest or weed control at 500 ppm (Botrytis cinerea): 96%

O=C(Nc1ncncc1-c1ccc(Br)cc1)c1ccccc1Cl [drawing 102]
pest or weed control at 500 ppm (Botrytis cinerea): 99%

O=C(Nc1ncncc1-c1ccc(Cl)c(Cl)c1)c1ccccc1Cl [drawing 103]
pest or weed control at 500 ppm (Botrytis cinerea): 91%

O=C(Nc1ncncc1-c1ccc(OC(F)(F)F)cc1)c1ccccc1I [drawing 104]
pest or weed control at 500 ppm (Botrytis cinerea): 89%

O=C(Nc1ncncc1-c1ccc(C(F)(F)F)cc1)c1ccccc1Cl [drawing 105]
pest or weed control at 500 ppm (Botrytis cinerea): 100%

O=C(Nc1ncncc1-c1ccc(OC(F)(F)F)cc1)c1ccccc1Cl [drawing 106]
pest or weed control at 500 ppm (Botrytis cinerea): 79%
